# Patent US9695193B2, “Inhibitors of Plasmodium falciparum equilibrative nucleoside transporter type I as anti-parasitic compounds” (The Trustees of Columbia University in the City of New York, priority 2013, dated 2017)
# Target: T1, PfENT1 (Plasmodium falciparum, UniProt Q8IDM6)
# T1 construct: expressed in transfected cells; host or cells: fui1Δ yeast (Saccharomyces cerevisiae), co-expressing GFP
# Format: cell-based
# Conditions: primary HTS, compounds at 10 μM, 125 μM 5-FUrd
# Protocol: A yeast-based high throughput screening (HTS) assay was used to identify compounds that inhibit PfENT1. The compounds described in this application were identified by screening four commercially available, chemical compound libraries obtained from Dr. Donald Landry's laboratory (Department of Medicine, Columbia University). These libraries contain approximately 80,000 unique chemical entities.
# In the primary screen the compounds were tested at a concentration of 10 μM. Hits were identified by the growth of fui1Δ yeast expressing PfENT1 and Green Fluorescent Protein (GFP) in the presence of the cytotoxic nucleoside 5-fluorouridine (5-FUrd). 5-FUrd is transported by PfENT1. PfENT1 expressing fui1Δ yeast will only grow in the presence of 125 μM 5-FUrd if a PfENT1 inhibitor blocks the uptake of 5-FUrd into the yeast. Significant yeast growth in the HTS in 384 well plates was determined by two criteria: 1) turbidity as determined by the optical density at 620 nm (OD620) and 2) GFP fluorescence intensity. […] Hits had to be positive by both criteria.
# T1 sequence (Q8IDM6 whole entry): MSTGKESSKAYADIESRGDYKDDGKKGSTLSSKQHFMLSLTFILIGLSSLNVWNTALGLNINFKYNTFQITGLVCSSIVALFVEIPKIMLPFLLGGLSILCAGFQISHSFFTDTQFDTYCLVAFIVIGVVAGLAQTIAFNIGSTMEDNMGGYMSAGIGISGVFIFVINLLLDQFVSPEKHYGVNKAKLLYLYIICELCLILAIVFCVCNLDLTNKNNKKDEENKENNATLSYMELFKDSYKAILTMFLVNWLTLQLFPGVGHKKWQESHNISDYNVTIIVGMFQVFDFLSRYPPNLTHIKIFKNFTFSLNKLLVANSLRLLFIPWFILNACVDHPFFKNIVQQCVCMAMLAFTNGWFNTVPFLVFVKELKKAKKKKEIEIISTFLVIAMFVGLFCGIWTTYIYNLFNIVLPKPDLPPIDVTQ
row,SMILES,Avg Normalized % maximal activity [%]
1,"Cc1ccnc(NC(=O)c2cccc(NC(=O)c3ccco3)c2)c1 [compound 65, N-(3-{[(4-methyl-2-pyridinyl)amino]carbonyl}phenyl)-2-furamide]",7.09
2,"CCN(CC)C(=O)COc1ccc2c(c1)oc(=O)c1cc(OC)ccc12 [compound 17, N,N-diethyl-2-[(8-methoxy-6-oxo-6H-benzo [c]chromen-3-yl)oxy]acetamide]",22.15
3,"COc1ccccc1CN1CCN(Cc2ccccn2)CC1 [compound 69, 1-(2-methoxybenzyl)-4-(2-pyridinylmethyl) piperazine]",6.74
4,CCOC(=O)CSc1nnc2c3ccccc3n(CC)c2n1 [compound 161],2.08
5,"O=c1[nH]c(/C=C/c2ccccc2Cl)nc2ccccc12 [compound 18, 2-[2-(2-chlorophenyl)vinyl]-4(3H)-quinazolinone]",21.82
6,"COc1ccc(Cl)cc1NC(=O)c1ccc2nccnc2c1 [compound 87, N-(5-chloro-2-methoxyphenyl)-6-quinoxaline-carboxamide]",5.62
7,"COc1ccc(OC)c(NC(=O)CC2Nc3cc(C)c(C)cc3NC2=O)c1 (stereo not shown) [compound 171, N-(2,5-dimethoxyphenyl)-2-(6,7-dimethyl-3-oxo-1,2,3,4-tetrahydro-2-quinoxalinyl)acetamide]",1.60
8,"Cc1ccc2oc(-c3ccc(NC(=O)C4CCCO4)cc3)nc2c1 (stereo not shown) [compound 39, N-[4-(5-methyl-1,3-benzoxazol-2-yl)phenyl]tetrahydro-2-furancarboxamide]",10.52
9,"O=C(Nc1ccc(-c2nnc(-c3ccco3)o2)cc1)C1CCCO1 (stereo not shown) [compound 26, N-{4-[5-(2-furyl)-1,3,4-oxadiazol-2-yl]phenyl}tetrahydro-2-furancarboxamide]",15.22
10,"Cc1ccccc1C(=O)Nc1ccc(-c2nc3ncccc3o2)cc1 [compound 105, 2-methyl-N-(4-[1,3]oxazolo[4,5-b]pyridin-2-ylphenyl)benzamide]",4.70
11,"CN(C(=O)c1cc2c(=O)n3ccccc3nc2n1C)C1CCCCC1 [compound 153, N-cyclohexyl-N,1-dimethyl-4-oxo-1,4-dihydropyrido [1,2-a]pyrrolo[2,3-d] pyrimidine-2-carboxamide]",2.37
12,"O=C(Nc1cccc(NC(=O)c2cccs2)c1)c1ccc(Br)o1 [compound 137, 5-bromo-N-{3-[(2-thienylcarbonyl)amino]phenyl}-2-furamide]",3.37
13,"COc1c(C)cccc1C(=O)Nc1cc(-c2nc3ncccc3o2)ccc1C [compound 122, 2-methoxy-3-methyl-N-(2-methyl-5-[1,3]oxazolo[4,5-b]pyridin-2-ylphenyl)benzamide]",4.13
14,"COc1ccc(Cl)cc1Nc1nnc(-c2cnccn2)s1 [compound 32, N-(5-chloro-2-methoxyphenyl)-5-(2-pyrazinyl)-1,3,4-thiadiazol-2-amine]",12.03
15,"CC(=O)Nc1ccc(NC(=O)CSc2nc3ccccc3s2)cc1 [compound 168, N-[4-(acetylamino)phenyl]-2-(1,3-benzothiazol-2-ylthio)acetamide]",1.93
16,"COC(=O)c1ccccc1NC(=O)c1cccc(NC(=O)c2cccs2)c1C [compound 112, methyl 2-({2-methyl-3-[(2-thienylcarbonyl)amino]benzoyl}amino)benzoate]",4.55
17,"COc1ccc(-c2cc3ccccc3oc2=O)cc1NC(=O)c1cccs1 [compound 67, N-[2-methoxy-5-(2-oxo-2H-chromen-3-yl)phenyl]-2-thiophenecarboxamide]",6.98
18,"CCSc1nnc(NC(=O)c2cccc(OC)c2)s1 [compound 113, N-[5-(ethylthio)-1,3,4-thiadiazol-2-yl]-3-methoxybenzamide]",4.39
19,"O=C(Nc1c(-c2ccccc2)nc2ccc(Cl)cn12)c1ccccc1 [compound 167, N-(6-chloro-2-phenylimidazo [1,2-a]pyridin-3-yl)benzamide]",1.96
20,C[C@H]1CC[C@]2(NC1)O[C@H]1C[C@H]3[C@@H]4CC[C@H]5C[C@@H](O[C@@H]6O[C@H](CO)[C@H](O[C@@H]7O[C@H](CO)[C@@H](O)[C@H](O[C@@H]8OC[C@@H](O)[C@H](O)[C@H]8O)[C@H]7O[C@@H]7O[C@H](CO)[C@@H](O)[C@H](O)[C@H]7O)[C@H](O)[C@H]6O)CC[C@]5(C)[C@H]4CC[C@]3(C)[C@H]1[C@@H]2C [compound 95],5.00
21,"Cc1ccc(NC(=O)Nc2ccc(F)cc2)nc1 [compound 169, N-(4-fluorophenyl)-N′-(5-methyl-2-pyridinyl)urea]",1.85
22,"COc1ccc(N(CC(=O)Nc2ccc(Cl)cc2)S(C)(=O)=O)c(OC)c1 [compound 107, N~1~-(4-chlorophenyl)-N~2~-(2,4-dimethoxyphenyl)-N~2~-(methylsulfonyl)glycinamide]",4.67

row,SMILES,Avg Normalized % maximal activity [%]
1,O=c1c2c3nc4ccccc4nc3n(Cc3ccco3)c2ncn1Cc1ccco1 [compound 166],1.98
2,"CCSc1nnc(NC(=O)c2cc(Br)ccc2Cl)s1 [compound 125, 5-bromo-2-chloro-N-[5-(ethylthio)-1,3,4-thiadiazol-2-yl]benzamide]",3.89
3,"CC1CCc2sc3ncnc(N4CCN(C(=O)c5ccco5)CC4)c3c2C1 (stereo not shown) [compound 21, 4-[4-(2-furoyl)-1-piperazinyl]-6-methyl-5,6,7,8-tetrahydro[1] benzothieno[2,3-d]pyrimidine]",17.70
4,"COC(=O)c1ccccc1NC(=O)c1cccc(NC(=O)c2ccco2)c1C [compound 33, methyl 2-{[3-(2-furoylamino)-2-methylbenzoyl]amino}benzoate]",11.98
5,O=C1OC(CO)[C@@H](O)C(O)C1O (stereo partly shown) [compound 102],4.76
6,"Nc1nc(N)n(-c2ccccc2)n1 [compound 118, 1-phenyl-1H-1,2,4-triazole-3,5-diamine]",4.28
7,"COc1ccc(-c2cnc3ccccc3n2)cc1NC(=O)c1cccs1 [compound 92, N-(2-methoxy-5-(2-quinoxalinyl)phenyl]-2-thiophenecarboxamide]",5.16
8,"COc1ccc(NC(=O)C(C)Oc2ccc3oc(=O)cc(C)c3c2)cc1 (stereo not shown) [compound 88, N-(4-methoxyphenyl)-2-[(4-methyl-2-oxo-2H-chromen-6-yl)oxy]propanamide]",5.42
9,"O=C(Nc1cc(-c2nc3ccccc3[nH]2)ccc1Cl)c1ccco1 [compound 103, N-[5-(1H-benzimidazol-2-yl)-2-chlorophenyl]-2-furamide]",4.74
10,"COc1ccccc1C(=O)Nc1nnc(COc2ccc(C)cc2)s1 [compound 158, 2-methoxy-N-{5-[(4-methylphenoxy)methyl]-1,3,4-thiadiazol-2-yl}benzamide]",2.12
11,"COc1ccc(NC(=O)C2CCN(C(=O)c3ccc(F)cc3)CC2)c(OC)c1 [compound 154, N-(2,4-dimethoxyphenyl)-1-(4-fluorobenzoyl)-4-piperidinecarboxamide]",2.30
12,"COC(=O)c1ccccc1NC(=O)c1ccc(NC(=O)C2CCCO2)cc1 (stereo not shown) [compound 99, methyl 2-({4-[(tetrahydro-2-furanylcarbonyl)amino]benzoyl}amino)benzoate]",4.83
13,"Cc1cc(=O)oc2cc(OCc3ccc4c(c3)OCO4)ccc12 [compound 134, 7-(1,3-benzodioxol-5-ylmethoxy)-4-methyl-2H-chromen-2-one]",3.56
14,"COc1ccc(C(=O)Nc2ccc(-c3nc4ncccc4o3)cc2C)cc1OC [compound 37, 3,4-dimethoxy-N-(2-methyl-4-[1,3]oxazolo [4,5-b]pyridin-2-ylphenyl)benzamide]",10.61
15,CC(=O)[C@H]1CC[C@H]2[C@@H]3C[C@H](C)C4=CC(=O)CC[C@]4(C)[C@H]3[C@@H](O)C[C@]12C [compound 121],4.13
16,"O=C(Nc1ccc2oc(-c3cccnc3)nc2c1)c1ccc(Br)o1 [compound 85, 5-bromo-N-[2-(3-pyridinyl)-1,3-benzoxazol-5-yl]-2-furamide]",5.64
17,"CCC(C(=O)NCc1cccs1)c1ccccc1 (stereo not shown) [compound 165, 2-phenyl-N-(2-thienylmethyl)butanamide]",2.01
18,"Cc1cccc(C(=O)Nc2ccc(-c3nnc(-c4ccco4)o3)cc2)c1 [compound 44, N-{4-[5-(2-furyl)-1,3,4-oxadiazol-2-yl]phenyl}-3-methylbenzamide]",9.07
19,COc1c(C)c2c(c(O)c1C/C=C(\C)CCC(=O)OCCN1CCOCC1)C(=O)OC2 [compound 127],3.85
20,COc1cccc(C(CC(=O)O)S(C)(=O)=O)c1 (stereo not shown) [compound 159],2.12
21,"CC1(C)CC(=O)c2sc(NC(=O)c3ccccc3F)nc2C1 [compound 61, N-(5,5-dimethyl-7-oxo-4,5,6,7-tetrahydro-1,3-benzothiazol-2-yl)-2-fluorobenzamide]",7.27
